# Assay results as given in US6441237B1, “Substituted 3-phenoxy- and 3-phenylalkyloxy-2-phenyl-propylamines” (Boehringer Ingelheim Pharma KG, priority 1999, dated 2002).
row,Structure (SMILES),melting point
1,COCCNCC(COCc1c(F)cccc1F)c1c(C)cccc1C.Cl (stereo not drawn),128 °C
2,C=CCN(C)CC(c1c(C)cccc1C)C(OC)c1c(F)cccc1F.Cl (stereo not drawn) [11.55],116 °C
3,Cc1cccc(C)c1C(CNCC(C)C)COCc1c(F)cccc1F.Cl (stereo not drawn),119 °C
4,Cc1cccc(C)c1COCC(CNCC1CC1)c1c(C)cccc1C.Cl (stereo not drawn),142 °C
5,C=C(C)CN(C)CC(c1c(C)cccc1C)C(OC)c1c(F)cccc1F.O=C(O)C(=O)O (stereo not drawn),128 °C
6,CCCNCC(COCc1c(F)cccc1F)c1c(C)cccc1C.Cl (stereo not drawn),142 °C
7,C#CCNCC(COCc1c(F)cccc1F)c1c(C)cccc1C.Cl (stereo not drawn) [8.12],145 °C
8,Cc1cccc(C)c1C(COCc1c(F)cccc1F)CN(C)C.Cl (stereo not drawn),144 °C
9,Br.CCCN(CCC)CC(COCc1c(F)cccc1F)c1c(C)cccc1C (stereo not drawn),143 °C
10,C#CCNCC(COCc1c(F)cccc1F)c1c(C)cccc1C.Cl (stereo not drawn) [8.9],124 °C

# Second part, the molecule after the results:
row,melting point,Structure (SMILES)
1,138 °C,Cc1cccc(C)c1C(CNC(C)C)COCc1c(F)cccc1F.Cl (stereo not drawn)
2,101 °C,Cc1cccc(C)c1C(CNCC1CC1)COCc1ccccc1F.Cl (stereo not drawn)
3,102 °C,Cc1cccc(C)c1C(CNC1CCCC1)COCc1ccccc1F.Cl (stereo not drawn)
4,112 °C,C#CCNCC(COCc1ccccc1F)c1c(C)cccc1C.Cl (stereo not drawn)
5,77 °C,COCCNCC(COCc1ccccc1F)c1c(C)cccc1C.Cl (stereo not drawn)
6,123 °C,Cc1cccc(C)c1C(CNC(C)C)COCc1ccccc1F.Cl (stereo not drawn)
7,130 °C,Cc1cccc(C)c1C(CNC1CCCC1)COCc1c(F)cccc1F.Cl (stereo not drawn)
8,111 °C,Br.Cc1cccc(C)c1C(CNC(C)C)COCc1ccccc1F (stereo not drawn)
9,149 °C,Br.Cc1cccc(C)c1C(CNCC1CCCO1)COCc1c(F)cccc1F (stereo not drawn)
10,191 °C,Cc1cccc(C)c1C(CNCC1CCC1)COCc1ccccc1F.Cl (stereo not drawn)
11,154 °C,Cc1cccc(C)c1C(CNCC1CC1)COCc1c(F)cccc1Cl.Cl (stereo not drawn)
12,145 °C,Cc1cccc(C)c1C(CNCC1CC1)COCc1c(F)cccc1F.Cl (stereo not drawn)
13,100 °C,CCCNCC(COCc1ccccc1F)c1c(C)cccc1C.Cl (stereo not drawn)
14,101 °C,Br.Cc1cccc(C)c1C(CNCC1CC1)COCc1ccccc1F (stereo not drawn)
